In PMC9850727, “Benzoxazolone-5-Urea Derivatives as Human Soluble Epoxide Hydrolase (sEH) Inhibitors” (ACS Omega, 2023):

What was measured:
human recombinant sEH = target: T1, human recombinant sEH (Homo sapiens, UniProt P34913); test: Cell-free sEH activity assay (fluorescence-based, PHOME substrate); assay type: biochemical; conditions: for sEH activity % of control at 1 μM / sEH activity % of control at 10 μM: residual activity; for inhibition at 10 µM: inhibition as stated in text
T1 construct: made in house; host or cells: Sf9 cells infected with recombinant baculovirus (from Dr. Bruce Hammock, UC Davis)
T1 sequence (P34913 1-555): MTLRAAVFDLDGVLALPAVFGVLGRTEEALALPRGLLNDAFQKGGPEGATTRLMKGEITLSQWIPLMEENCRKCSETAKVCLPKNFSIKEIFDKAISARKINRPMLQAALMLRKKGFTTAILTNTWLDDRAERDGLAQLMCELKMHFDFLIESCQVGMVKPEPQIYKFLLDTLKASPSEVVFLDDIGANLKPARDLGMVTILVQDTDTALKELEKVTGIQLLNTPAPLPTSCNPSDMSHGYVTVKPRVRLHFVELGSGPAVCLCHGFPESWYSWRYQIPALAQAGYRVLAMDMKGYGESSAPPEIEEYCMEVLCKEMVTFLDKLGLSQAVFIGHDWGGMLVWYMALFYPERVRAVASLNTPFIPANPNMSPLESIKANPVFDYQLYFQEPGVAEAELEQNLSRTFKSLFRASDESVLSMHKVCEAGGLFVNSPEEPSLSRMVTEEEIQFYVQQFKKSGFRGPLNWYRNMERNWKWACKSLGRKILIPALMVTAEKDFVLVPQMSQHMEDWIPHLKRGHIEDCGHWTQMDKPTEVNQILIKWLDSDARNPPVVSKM
From the text: Inspired by the reported crystallographic screening studies,[12],[13],[15] a series of aryl amide (12, 15–21) or urea (31–39) derivatives with a benzoxazolone head group were synthesized and assessed for inhibition of human recombinant sEH in a cell-free activity assay[27] (Tables 1 and 2). […] Consequently, compounds in which the amide group is attached to the benzoxazolone ring through NH could outperform their direct reversed analogues by more favorable interactions in the central pocket of sEH. In addition, simple methylation of the benzoxazolone NH in 17–18 engendered noticeable differences in sEH inhibition relative to the unmethylated counterparts 15–16, implying that a free NH with H-bond donor property at this location is also important for the observed potency. Subsequently, the positioning of the amide group at the 5-position of the benzoxazolone ring also retained the inhibitory activity.
Human recombinant sEH was expressed and purified as published before.[31] Briefly, Sf9 cells were infected with a recombinant baculovirus (obtained from Dr. Bruce Hammock, University of California, Davis, CA). Following 72 h of transfection, the cells were centrifuged and then sonicated (3 × 10 s at 4 °C) in lysis buffer comprising glycerol (10%), NaHPO4 (50 mM, pH 8), leupeptin (10 μg/mL), NaCl (300 mM), phenylmethanesulfonyl fluoride (1 mM), EDTA (1 mM), and soybean trypsin inhibitor (60 μg/mL). After centrifugation at 100,000g (60 min, 4 °C), the obtained supernatants were subjected to a benzylthio-sepharose-affinity chromatography and eluted with 4-fluorochalcone oxide in PBS containing 1 mM DTT and 1 mM EDTA for purification of sEH. The enzyme was dialyzed and concentrated (Millipore Amicon-Ultra-15 centrifugal filter), and the solution was further assayed for total protein content by a protein detection kit (Bio-Rad Laboratories, Munich, Germany). The epoxide hydrolase activity was measured using a fluorescence-based assay, as reported before.[27] In brief, sEH was diluted in Tris buffer (25 mM, pH 7) containing BSA (0.1 mg/mL) to a suitable enzyme concentration and pretreated with test compounds or 0.1% DMSO as vehicle for 10 min at room temperature. To start the reaction, 50 μM of the PHOME substrate (3-phenyl-cyano(6-methoxy-2-naphthalenyl)methyl ester-2-oxiraneacetic acid), a nonfluorescent compound that is enzymatically converted by sEH into fluorescent 6-methoxy-naphtaldehyde, was added at RT. The reaction was stopped by addition of ZnSO4 (200 mM) after 60 min, and fluorescence was measured (λem 465 nm, λex 330 nm) by employing a NOVOstar microplate reader (BMG LABTECH GmbH, Ortenberg, Germany). If required, the potential fluorescence of test compounds was subtracted from the readout.

[1] = mean ± SEM, n = 3, benzoxazolone-amides (Table 1)
[2] = cell-free assay, benzoxazolone-amides (Table 1)
[3] = mean ± SEM, n = 3, benzoxazolone-ureas (Table 2)
[4] = cell-free assay, mean ± SEM, n = 3, benzoxazolone-ureas (Table 2)

With `O=C(Nc1ccc(OCc2ccccc2)cc1)c1ccc2[nH]c(=O)oc2c1` [Compound 12, N-[4-(Benzyloxy)phenyl]-2-oxo-2,3-dihydro-1,3-benzoxazole-6-carboxamide] the “sEH activity % of control at 1 μM” value (human recombinant sEH; [1]) was 91.0 ± 6.1 % of control, the “sEH activity % of control at 10 μM” value (human recombinant sEH; [1]) was 84.4 ± 3.8 % of control and the “sEH inhibition (in words)” value (human recombinant sEH; cell-free assay) was “devoid of sEH inhibition”. The IC50 (human recombinant sEH; [2]) was over 10000 nM and the melting point was over 300 °C.

For `O=C(Nc1ccc2[nH]c(=O)oc2c1)c1ccc(OCc2ccccc2)cc1` [Compound 15, 4-(Benzyloxy)-N-(2-oxo-2,3-dihydro-1,3-benzoxazol-6-yl)benzamide], the “sEH activity % of control at 1 μM” value (human recombinant sEH; [1]) was 67.8 ± 10.8 % of control, the inhibition at 10 µM (human recombinant sEH) was 70% and the “sEH activity % of control at 10 μM” value (human recombinant sEH; [1]) was 28.9 ± 8.1 % of control. It also gave an IC50 (human recombinant sEH; [2]) of under 10000 nM and a melting point of 256.6 to 259 °C.

With `O=C(Nc1ccc2[nH]c(=O)oc2c1)c1ccc(Oc2ccccc2)cc1` [Compound 16, N-(2-Oxo-2,3-dihydro-1,3-benzoxazol-6-yl)-4-phenoxybenzamide] the “sEH activity % of control at 1 μM” value (human recombinant sEH; [1]) was 49.8 ± 6.3 % of control, the inhibition at 10 µM (human recombinant sEH) was 85% and the “sEH activity % of control at 10 μM” value (human recombinant sEH; [1]) was 15.2 ± 5.9 % of control. The IC50 (human recombinant sEH; [2]) was about 1000 nM and the melting point was 231.8 to 233 °C.

In the case of `Cn1c(=O)oc2cc(NC(=O)c3ccc(OCc4ccccc4)cc3)ccc21` [Compound 17, 4-(Benzyloxy)-N-(3-methyl-2-oxo-2,3-dihydro-1,3-benzoxazol-6-yl)benzamide], the “sEH activity % of control at 1 μM” value (human recombinant sEH; [1]) is reported as 105.8 ± 15.9 % of control, the “sEH activity % of control at 10 μM” value (human recombinant sEH; [1]) is reported as 115.1 ± 4.9 % of control and the IC50 (human recombinant sEH; [2]) is reported as over 10000 nM. It also gave a melting point of 251.8 to 253.7 °C.

For `Cn1c(=O)oc2cc(NC(=O)c3ccc(Oc4ccccc4)cc3)ccc21` [Compound 18, N-(3-Methyl-2-oxo-2,3-dihydro-1,3-benzoxazol-6-yl)-4-phenoxybenzamide], the “sEH activity % of control at 1 μM” value (human recombinant sEH; [1]) was 83.7 ± 9.8 % of control, the “sEH activity % of control at 10 μM” value (human recombinant sEH; [1]) was 91.5 ± 2.8 % of control and the IC50 (human recombinant sEH; [2]) was over 10000 nM. It also gave a melting point of 229.1 to 231.1 °C.

In the case of `O=C(Nc1ccc2oc(=O)[nH]c2c1)c1ccc(OCc2ccccc2)cc1` [Compound 20, 4-(Benzyloxy)-N-(2-oxo-2,3-dihydro-1,3-benzoxazol-5-yl)benzamide], the “sEH activity % of control at 1 μM” value (human recombinant sEH; [1]) is reported as 68.2 ± 6.6 % of control, the “sEH activity % of control at 10 μM” value (human recombinant sEH; [1]) is reported as 30.0 ± 10.5 % of control and the IC50 (human recombinant sEH; [2]) is reported as under 10000 nM. For the same compound, the melting point was 260.7 to 262.8 °C.

With `O=C(Nc1ccc2oc(=O)[nH]c2c1)c1ccc(Oc2ccccc2)cc1` [Compound 21, N-(2-Oxo-2,3-dihydro-1,3-benzoxazol-5-yl)-4-phenoxybenzamide] the “sEH activity % of control at 1 μM” value (human recombinant sEH; [1]) was 47.4 ± 7.1 % of control, the “sEH activity % of control at 10 μM” value (human recombinant sEH; [1]) was 14.4 ± 6.8 % of control and the IC50 (human recombinant sEH; [2]) was about 1000 nM. It also gave a melting point of 231 to 233 °C.

With `O=C(NCc1ccccc1Cl)Nc1ccc2oc(=O)[nH]c2c1` [Compound 31, 1-[(2-Chlorophenyl)methyl]-3-(2-oxo-2,3-dihydro-1,3-benzoxazol-5-yl)urea] the “sEH activity % of control at 1 μM” value (human recombinant sEH; [3]) was 3.1 ± 6.2 % of control, the “sEH activity % of control at 10 μM” value (human recombinant sEH; [3]) was 5.8 ± 6.2 % of control and the IC50 (human recombinant sEH; [4]) was 9.9 ± 2.9 nM. For the same compound, the melting point was 242.5 °C (dec.).

For `O=C(NCc1ccccc1C(F)(F)F)Nc1ccc2oc(=O)[nH]c2c1` [Compound 32, 3-(2-Oxo-2,3-dihydro-1,3-benzoxazol-5-yl)-1-{[2-(trifluoromethyl)phenyl]methyl}urea], the “sEH activity % of control at 1 μM” value (human recombinant sEH; [3]) was 7.1 ± 5.8 % of control, the “sEH activity % of control at 10 μM” value (human recombinant sEH; [3]) was 4.7 ± 8.0 % of control and the IC50 (human recombinant sEH; [4]) was 2 ± 0.42 nM. The melting point was 237.8 °C (dec.).

For `O=C(NCc1cccc(Cl)c1)Nc1ccc2oc(=O)[nH]c2c1` [Compound 34, 1-[(3-Chlorophenyl)methyl]-3-(2-oxo-2,3-dihydro-1,3-benzoxazol-5-yl)urea], the “sEH activity % of control at 1 μM” value (human recombinant sEH; [3]) was 18.6 ± 5.1 % of control, the “sEH activity % of control at 10 μM” value (human recombinant sEH; [3]) was 7.5 ± 3.4 % of control and the IC50 (human recombinant sEH; [4]) was 80 ± 23 nM. The melting point was 244.5 °C (dec.).

With `O=C(NCc1ccc(F)cc1)Nc1ccc2oc(=O)[nH]c2c1` [Compound 35, 1-[(4-Fluorophenyl)methyl]-3-(2-oxo-2,3-dihydro-1,3-benzoxazol-5-yl)urea] the “sEH activity % of control at 1 μM” value (human recombinant sEH; [3]) was 62.8 ± 3.3 % of control, the “sEH activity % of control at 10 μM” value (human recombinant sEH; [3]) was 5.2 ± 3.6 % of control and the IC50 (human recombinant sEH; [4]) was 570 ± 15 nM. The melting point was 249.3 °C (dec.).

For `O=C(NCc1ccc(Cl)cc1)Nc1ccc2oc(=O)[nH]c2c1` [Compound 36, 1-[(4-Chlorophenyl)methyl]-3-(2-oxo-2,3-dihydro-1,3-benzoxazol-5-yl)urea], the “sEH activity % of control at 1 μM” value (human recombinant sEH; [3]) was 18.6 ± 2.6 % of control, the “sEH activity % of control at 10 μM” value (human recombinant sEH; [3]) was 1.9 ± 2.4 % of control and the IC50 (human recombinant sEH; [4]) was 120 ± 20 nM. The melting point was 251 °C (dec.).

In the case of `O=C(NCc1ccc(C(F)(F)F)cc1)Nc1ccc2oc(=O)[nH]c2c1` [Compound 37, 3-(2-Oxo-2,3-dihydro-1,3-benzoxazol-5-yl)-1-{[4-(trifluoromethyl)phenyl]methyl}urea], the “sEH activity % of control at 1 μM” value (human recombinant sEH; [3]) is reported as 12.3 ± 2.5 % of control, the “sEH activity % of control at 10 μM” value (human recombinant sEH; [3]) is reported as 1.1 ± 1.8 % of control and the IC50 (human recombinant sEH; [4]) is reported as 53 ± 8 nM. The melting point was 213.6 °C (dec.).

In the case of `O=C(NCc1cccc(F)c1F)Nc1ccc2oc(=O)[nH]c2c1` [Compound 39, 1-[(2,3-Difluorophenyl)methyl]-3-(2-oxo-2,3-dihydro-1,3-benzoxazol-5-yl)urea], the “sEH activity % of control at 1 μM” value (human recombinant sEH; [3]) is reported as 14.2 ± 2.7 % of control, the “sEH activity % of control at 10 μM” value (human recombinant sEH; [3]) is reported as 0.8 ± 2.0 % of control and the IC50 (human recombinant sEH; [4]) is reported as 33 ± 10 nM. For the same compound, the melting point was 259.9 °C (dec.).
